# From patent US9987254B2, “Ophthalmic composition for correcting presbyopia” (Eurocanarias Oftalmológica, S.L., priority 2013, dated 2018)
# Tests used:
# [1] = cited from earlier work
# [2] = tested on: prostaglandin synthesis at the level of ciliary body and the iris; conditions: in vitro; cited from earlier work
# presbyopia = test: Study in presbyopia patients over 40 years old, non-dominant eye treated, single daily application; type: in vivo, human; conditions: bromfenac combined with pilocarpine
# Source text: The study carried out by the present invention is based on a composition distinct from Dr. Benotzzi's, as well as on other selection criteria as regards patients, exclusively including patients over 40 years old with evident signs of clear presbyopia with a refractive defect among −0.50 of myopia and +0.75 of hyperopia with a maximum astigmatism of −0.75, in addition to their corresponding age-based presbyopia. Here, only those patients with the following characteristics were considered ideal candidates: an ACD (Anterior Chamber […] of the eye) greater than 2.5 mm, a White-to-White (horizontal diameter) greater than 11.4 mm and a value of photopic pupils higher than 3 mm. and of scotopic pupils lower than 6.5 mm, plus a correct convergence and binocularity and a density of the eye crystal lower than 25 measured with Pentacam. Additionally, only the non-dominant eye has been always treated, a situation that is not reflected in the studies of Dr. Benozzi, although we have evidence that recommends the use in both eyes. […]
# [3] = after instillation on the ocular surface
SMILES,"concentrations in aqueous humor remained [1, 3]","measurable levels in the major ocular tissues [1, 3] [h]",passage through the human cornea ([1]; human cornea),inhibition of prostaglandin synthesis [2],parasympathomimetic action of pilocarpine (presbyopia; compared with diclofenac of Dr. Benozzi's formula),depth of focus of the treated eye (presbyopia; non-dominant eye treated)
Nc1c(CC(=O)O)cccc1C(=O)c1ccc(Br)cc1 [bromfenac sodium sesquihydrate],over 12 hours,≤ 24,efficiently pass through the human cornea,–,–,–
Nc1c(CC(=O)O)cccc1C(=O)c1ccc(Br)cc1 [bromfenac],–,–,–,inhibits prostaglandin synthesis,significantly extends,significant increase
